Measured values taken from article PMC3361763 (2011).

Assays:
CDK4 = CDK4 (Homo sapiens, UniProt P11802); experiment: radiometric kinase assay; type: biochemical
CDK6 = CDK6 (Homo sapiens, UniProt Q00534); experiment: radiometric kinase assay; type: biochemical
CDK6, sequence (Q00534 whole entry): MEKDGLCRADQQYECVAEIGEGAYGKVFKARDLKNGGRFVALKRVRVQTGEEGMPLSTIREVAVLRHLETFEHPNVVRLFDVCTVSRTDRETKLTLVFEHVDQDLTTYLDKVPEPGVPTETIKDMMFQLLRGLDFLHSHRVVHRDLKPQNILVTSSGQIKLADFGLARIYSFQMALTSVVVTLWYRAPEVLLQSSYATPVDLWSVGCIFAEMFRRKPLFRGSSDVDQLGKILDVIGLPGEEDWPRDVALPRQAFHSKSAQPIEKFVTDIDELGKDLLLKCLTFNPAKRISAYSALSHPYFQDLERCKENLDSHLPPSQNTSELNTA

CDK4, sequence (P11802 2-303): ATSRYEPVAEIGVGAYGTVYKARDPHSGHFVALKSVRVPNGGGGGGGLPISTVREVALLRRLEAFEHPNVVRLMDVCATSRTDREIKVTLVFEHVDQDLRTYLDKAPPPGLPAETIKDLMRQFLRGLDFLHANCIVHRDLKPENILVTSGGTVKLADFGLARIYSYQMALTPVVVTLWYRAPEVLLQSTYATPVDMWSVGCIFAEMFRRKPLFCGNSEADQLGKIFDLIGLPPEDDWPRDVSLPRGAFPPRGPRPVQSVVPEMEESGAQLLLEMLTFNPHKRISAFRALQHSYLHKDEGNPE

radiometric kinase assay (GST-Rb substrate) on CDK4 immunoprecipitated from HCT1 (CDK4): ~ 75 μM | IC50 (CDK6): 75 µM
SMILES: O=C(O)CN(CC(=O)O)Cc1cc2c(cc1O)Oc1cc(O)c(CN(CC(=O)O)CC(=O)O)cc1C21OC(=O)c2ccccc21 [calcein, 4′5′-bis(N, N-bis(carboxymethyl)aminomethyl) fluorescein]
